Experimental data taken from patent publication US20220202912A1, “Polypeptides in Preparation of Drugs for Treatment or Prevention of Rheumatoid Arthritis” (priority 2011, published 2022).

What was measured:
[1] = tested on: CIA transgenic TNF-luc mice; test: collagen type II-induced arthritis in transgenic TNF-luc mice (swelling, scores, weight); type: in vivo, BALB/c transgenic TNF-luc mice; parameters: key to joint index score / arthritis index score: 0–4 per paw, four paws summed, max 16; settings: Adalimumab 8 mg/kg, mPEG-SC20k-HM-3 20 mg/kg; for right ankle swelling changes: CIA TNF-luc mice; for clinical score (Table 32, kg) / arthritis index score / clinical score: CIA chronic model
Protocol: 8 animals are randomly divided into 4 groups (n=2), a normal group, a model group, a positive drug group and a test group. On day 0, for the primary immunization, mice are hypodermically injected with 50 μL collagen emulsifier (containing CII 100 μg/ mouse) at the tail root of mice for sensitization. On day 0, initial ankle widths, initial foot palm widths and initial toe thicknesses of left and right feet of mice in each group are measured separately.
After day 21, the same dosage of emulsifier is used for second immunization at the tail root. After the symptoms such as redness and swelling of joints appear on the four toes of mice, continuous administration is performed for 15 days. The normal group and the model group are separately hypodermically injected with 0.9% normal saline (0.2 mL/20 g of body weight), once every 2 days, 7 times in total. The positive drug Adalimumab group is hypodermically injected with Adalimumab (8 mg/kg of body weight), once every 15 days, once in total. The test treatment group is hypodermically injected with mPEG-SC20k-HM-3 (20 mg/kg of body weight), once every 2 days, 7 times in total.
Every 2 days, the thickness of the ankle, the width of the foot palm and the thickness of the toes of each group of mice are measured with a vernier caliper.
Swelling degree of left ankle (cm)=swelling thickness of left ankle on day n of the experiment−measured initial thickness of left ankle.
Swelling degree of right ankle (cm)=swelling thickness of right ankle on day n of the experiment−measured initial thickness of right ankle.
The joints of the mouse paw are observed with naked eyes, and the joints are scored every 2 days from day 30. Scoring is performed in terms of level 0 to level 4, 5 levels in total. 0=no erythema or swelling; 1=slight erythema or swelling, with erythema or swelling on one of the front/hind toe joints; 2=erythema or swelling on more than one toe; 3=swelling of paw beneath the ankle or wrist joint; 4=swelling of all paws including the ankle joint. Four paws of the mice are scored separately, and the highest score is 16 points.
After the secondary inflammation appears, systemic scoring is performed every 2 days, and the scoring standards are as follows:
Hind foot: no swelling=0 point, swelling of one hind foot=1 point, swelling of two hind feet=2 points.
Front foot: no swelling=0, swelling of one front foot=1 point, swelling of two front feet=2 points.
Ears: no redness symptoms and nodules=0 point, redness symptoms or nodules of one ear=1 point, red symptoms and nodules of two ears=2 points.
Nose: no swelling=0 point, obvious swelling=1 point.
Tail: no nodule=0 point, nodules=1 point; the highest score is 8 points.

[2] = tested on: macrophages (PMA-induced U937 cells); test: Western blot of protein expression in macrophages (PMA-induced U937 cells); type: cell-based, human
Protocol: 3.1 U937 cells are added to a 6-well plate (1.5×10^5 cells/mL), PMA (25 ng/mL) is used for induction for 48 h, and the cells adhere and differentiate into macrophages. Positive drug Adalimumab (25 μg/mL, 50 μg/mL, 100 μg/mL, 200 μg/mL, 400 μg/mL), Avastin (25 μg/mL, 50 μg/mL) are added, the final concentrations of mPEG-SC20k-HM-3 are 2.25, 4.5, 9.0, 13.5, 18.0, 36 μmol/L, and isovolumetric PBS is added to the blank group and the model group. The cells are incubated in a CO2 incubator at 37° C. for 24 or 48 h. Rat synovial cells are induced with LPS for 24 h and then mPEG-SC20k-HM-3 is administrated to final concentrations of 2.25, 4.5, 9.0, 13.5, 18.0 μmol/L, and the cells are incubated in a CO2 incubator at 37° C. for 48 h.
3.3 A protein extract solution is added at 20 μL/1×10^5 cells, and the cells are pipetted and dispersed, and stand at 4° C. for 30 min to lyse the cells.
3.4 1/4 volume of 5×protein loading buffer is added, and boiling water bath is performed for 5-10 min.
3.5 20 μL of protein sample is taken and 10% SDS-PAGE electrophoresis is performed.
3.6 The protein on the gel is transferred to the PVDF membrane by using a wetting transfer method with a constant current of 100 mA for 1-2.5 h.
3.7 The PVDF membrane is blocked with a blocking solution at room temperature for 2 h.
3.8 The membrane is washed for 3 times with PBST, 5 min each time. A primary antibody is added and the membrane stands at 4° C. overnight or is incubated at 37° C. for 2 h.
3.9 The membrane is washed for 3 times with PBST, 5 min each time. A secondary antibody is added and the membrane is incubated at room temperature for more than 2 h.
3.10 The membrane is exposed in a gel imager using an ECL detection kit.

In the case of Adalimumab [reference compound], the left ankle swelling ([1]; 0 d) is reported as 0.000 ± 0.000 cm, the “right ankle swelling changes” value ([1]; 0 d, mean ± SD) is reported as 0.000 ± 0.000 cm and the “clinical score (Table 32, kg)” value ([1]; 0 d, mean ± SD) is reported as 0.000 ± 0.000. For the same substance, the left ankle swelling ([1]; 12 d) was 0.006 ± 0.050 cm, the “right ankle swelling changes” value ([1]; 12 d, mean ± SD) was 0.010 ± 0.014 cm and the “clinical score (Table 32, kg)” value ([1]; 12 d, mean ± SD) was 1.050 ± 0.778. For the same substance, the left ankle swelling ([1]; 15 d) was 0.011 ± 0.072 cm, the “right ankle swelling changes” value ([1]; 15 d, mean ± SD) was 0.000 ± 0.028 cm and the “clinical score (Table 32, kg)” value ([1]; 15 d, mean ± SD) was 0.940 ± 1.047. The left ankle swelling ([1]; 18 d) was 0.021 ± 0.058 cm, the “right ankle swelling changes” value ([1]; 18 d, mean ± SD) was 0.012 ± 0.011 cm and the “clinical score (Table 32, kg)” value ([1]; 18 d, mean ± SD) was 0.455 ± 0.247. For the same substance, the left ankle swelling ([1]; 21 d) was 0.001 ± 0.041 cm, the “right ankle swelling changes” value ([1]; 21 d, mean ± SD) was 0.007 ± 0.010 cm and the “clinical score (Table 32, kg)” value ([1]; 21 d, mean ± SD) was 0.230 ± 0.523. The left ankle swelling ([1]; 24 d) was 0.016 ± 0.048 cm, the “right ankle swelling changes” value ([1]; 24 d, mean ± SD) was 0.009 ± 0.007 cm and the “clinical score (Table 32, kg)” value ([1]; 24 d, mean ± SD) was 0.550 ± 0.212. The left ankle swelling ([1]; 27 d) was 0.007 ± 0.049 cm, the “right ankle swelling changes” value ([1]; 27 d, mean ± SD) was 0.012 ± 0.017 cm and the “clinical score (Table 32, kg)” value ([1]; 27 d, mean) was 1.295. The left ankle swelling ([1]; 30 d) was 0.012 cm, the “right ankle swelling changes” value ([1]; 30 d, mean ± SD) was 0.008 ± 0.008 cm and the “clinical score (Table 32, kg)” value ([1]; 30 d, mean) was 0.975. For the same substance, the arthritis index score ([1]; 30 d, mean ± SD) was 5.00 ± 2.83, the clinical score ([1]; 30 d, mean ± SD) was 5.00 ± 1.41 and the left ankle swelling ([1]; 33 d) was 0.011 ± 0.041 cm. For the same substance, the “right ankle swelling changes” value ([1]; 33 d, mean ± SD) was 0.011 ± 0.016 cm, the arthritis index score ([1]; 33 d, mean ± SD) was 8.00 ± 0.00 and the clinical score ([1]; 33 d, mean ± SD) was 5.00 ± 0.00. The “clinical score (Table 32, kg)” value ([1]; 33 d, mean ± SD) was 1.295 ± 0.177, the left ankle swelling ([1]; 36 d) was 0.012 ± 0.042 cm and the “right ankle swelling changes” value ([1]; 36 d, mean ± SD) was 0.017 ± 0.007 cm. The arthritis index score ([1]; 36 d, mean ± SD) was 8.50 ± 0.71, the clinical score ([1]; 36 d, mean ± SD) was 5.00 ± 0.00 and the “clinical score (Table 32, kg)” value ([1]; 36 d, mean ± SD) was 2.200 ± 0.707. The left ankle swelling ([1]; 39 d) was 0.002 ± 0.031 cm, the “right ankle swelling changes” value ([1]; 39 d, mean ± SD) was 0.007 ± 0.010 cm and the arthritis index score ([1]; 39 d, mean ± SD) was 6.50 ± 0.71. The clinical score ([1]; 39 d, mean ± SD) was 5.00 ± 0.00, the “clinical score (Table 32, kg)” value ([1]; 39 d, mean ± SD) was 2.187 ± 0.443 and the left ankle swelling ([1]; 42 d) was 0.003 ± 0.052 cm. For the same substance, the “right ankle swelling changes” value ([1]; 42 d, mean ± SD) was 0.012 ± 0.017 cm, the arthritis index score ([1]; 42 d, mean ± SD) was 5.50 ± 0.71 and the clinical score ([1]; 42 d, mean ± SD) was 5.00 ± 0.00. For the same substance, the “clinical score (Table 32, kg)” value ([1]; 42 d, mean ± SD) was 2.655 ± 1.082, the left ankle swelling ([1]; 45 d) was 0.006 ± 0.051 cm and the “right ankle swelling changes” value ([1]; 45 d, mean ± SD) was 0.005 ± 0.021 cm. The arthritis index score ([1]; 45 d, mean ± SD) was 5.00 ± 0.00, the clinical score ([1]; 45 d, mean ± SD) was 4.00 ± 0.00 and the “clinical score (Table 32, kg)” value ([1]; 45 d, mean ± SD) was 3.085 ± 1.478. For the same substance, the left ankle swelling ([1]; 48 d) was 0.007 ± 0.047 cm, the “right ankle swelling changes” value ([1]; 48 d, mean ± SD) was 0.006 ± 0.006 cm and the “clinical score (Table 32, kg)” value ([1]; 48 d, mean) was 3.415. For the same substance, the arthritis index score ([1]; 48 d, mean ± SD) was 5.00 ± 1.41, the clinical score ([1]; 48 d, mean ± SD) was 5.00 ± 0.00 and the left ankle swelling ([1]; 51 d) was 0.001 cm. For the same substance, the “right ankle swelling changes” value ([1]; 51 d, mean ± SD) was 0.004 ± 0.006 cm, the “clinical score (Table 32, kg)” value ([1]; 51 d, mean) was 3.835 and the arthritis index score ([1]; 51 d, mean ± SD) was 4.50 ± 0.71. The clinical score ([1]; 51 d, mean ± SD) was 4.50 ± 0.71 and the “effect on integrin pathway angiogenesis” value [2] was “no inhibitory effect”.
